Assay results: EP0480714A2, “HIV protease inhibitors having symmetrical structure” (MERCK & CO. INC., priority 1990, dated 1992)

Biological target: HIV protease (Human immunodeficiency virus type 1 group M subtype B, UniProt P04585)
Assay: Assay for inhibition of microbial expressed viral protease (peptide substrate cleavage, HPLC readout)
Type: biochemical
Conditions: protease expressed in Eschericia coli; peptide substrate Val-Ser-Gln-Asn-(betanapthyl)Ala-Pro-Ile-Val 0.5 mg/mL; 50 mM Na acetate, pH 5.5, 30°C, 1 hour; read-out: IC₅₀
Protocol: Assay for Inhibition of Microbial Expressed Viral Protease
Inhibition studies of the reaction of the protease expressed in Eschericia coli with a peptide substrate [Val-Ser-Gln-Asn-(betanapthyl)Ala-Pro-Ile-Val, 0.5 mg/mL at the time the reaction is initiated] were in 50 mM Na acetate, pH 5.5, at 30°C for 1 hour. Various concentrations of inhibitor in 1.0 ul DMAO were added to 25 ul of the peptide solution in water. The reaction is initiated by the addition of 15 ul of 0.33 nM protease (0.11 ng) in a solution of 0.133 M Na acetate pH 5.5 and 0.26% bovine serum albumin. The reaction was quenched with 160 ul of 5% phosphoric acid. Products of the reaction were separated by HPLC (VYDAC wide pore 5 cm C-18 reverse phase, acetonitrile gradient, 0.1% phosphoric acid). The extent of inhibition of the reaction was determined from the peak heights of the products.

O=C(N[C@H]1c2ccccc2C[C@H]1O)[C@H](Cc1ccccc1)CC(O)C[C@@H](Cc1ccccc1)C(=O)N[C@H]1c2ccccc2C[C@H]1O [Example 1, N,N-bis-(2(R)-hydroxy-1(S)-indanyl)-2, 6(R,R)diphenylmethyl-4-hydroxy-1,7-heptanediamide]
IC50: ~0.7 nM
